Patent publication US11739064B2, “HDAC inhibitors and therapeutic methods using the same” (THE BOARD OF TRUSTEES OF THE UNIVERSITY OF ILLINOIS, priority 2015, dated 2023)

Assays:
HDAC2 = HDAC2 (Homo sapiens, UniProt Q92769); test: In vitro HDAC inhibition assay, HDAC2; assay type: biochemical; details: NI = No inhibition at a concentration of 50 pM (footnote b); read-out: HDAC isoform IC50, HDAC2
HDAC3/NcoR2 complex = HDAC3/NcoR2 complex (Homo sapiens, UniProt O15379); test: In vitro HDAC inhibition assay, HDAC3; assay type: biochemical; details: NI = No inhibition at a concentration of 50 pM (footnote b); read-out: HDAC isoform IC50, HDAC3
Chain of HDAC3/NcoR2 complex (O15379 whole entry, canonical isoform): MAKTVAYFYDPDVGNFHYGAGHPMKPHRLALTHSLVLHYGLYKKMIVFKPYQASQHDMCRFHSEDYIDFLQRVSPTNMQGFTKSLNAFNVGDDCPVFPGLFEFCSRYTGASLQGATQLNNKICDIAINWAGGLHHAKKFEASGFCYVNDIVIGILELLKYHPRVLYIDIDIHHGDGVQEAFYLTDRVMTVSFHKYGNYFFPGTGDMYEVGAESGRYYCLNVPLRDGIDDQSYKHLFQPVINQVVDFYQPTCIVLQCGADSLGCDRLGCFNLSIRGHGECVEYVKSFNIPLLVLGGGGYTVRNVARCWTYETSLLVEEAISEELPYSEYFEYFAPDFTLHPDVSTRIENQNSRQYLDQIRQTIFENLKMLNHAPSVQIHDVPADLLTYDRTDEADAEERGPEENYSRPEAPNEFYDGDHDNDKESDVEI
Chain of HDAC3/NcoR2 complex (Q9Y618 395-489 partner limits assumed): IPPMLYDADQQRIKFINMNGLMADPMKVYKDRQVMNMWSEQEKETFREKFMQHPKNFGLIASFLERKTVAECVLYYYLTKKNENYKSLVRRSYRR

Human HDAC6 = biological target: T1, Human HDAC6 (Homo sapiens, UniProt Q9UBN7); test: In vitro HDAC inhibition assay, HDAC6; assay type: biochemical; details: read-out: HDAC isoform IC50, HDAC6
T1 construct: Full length with N-terminal GST tag, MW=159 kDa; GST (N); host or cells: baculovirus expression system, Sf9 cells
T1 sequence (Q9UBN7 1-1215): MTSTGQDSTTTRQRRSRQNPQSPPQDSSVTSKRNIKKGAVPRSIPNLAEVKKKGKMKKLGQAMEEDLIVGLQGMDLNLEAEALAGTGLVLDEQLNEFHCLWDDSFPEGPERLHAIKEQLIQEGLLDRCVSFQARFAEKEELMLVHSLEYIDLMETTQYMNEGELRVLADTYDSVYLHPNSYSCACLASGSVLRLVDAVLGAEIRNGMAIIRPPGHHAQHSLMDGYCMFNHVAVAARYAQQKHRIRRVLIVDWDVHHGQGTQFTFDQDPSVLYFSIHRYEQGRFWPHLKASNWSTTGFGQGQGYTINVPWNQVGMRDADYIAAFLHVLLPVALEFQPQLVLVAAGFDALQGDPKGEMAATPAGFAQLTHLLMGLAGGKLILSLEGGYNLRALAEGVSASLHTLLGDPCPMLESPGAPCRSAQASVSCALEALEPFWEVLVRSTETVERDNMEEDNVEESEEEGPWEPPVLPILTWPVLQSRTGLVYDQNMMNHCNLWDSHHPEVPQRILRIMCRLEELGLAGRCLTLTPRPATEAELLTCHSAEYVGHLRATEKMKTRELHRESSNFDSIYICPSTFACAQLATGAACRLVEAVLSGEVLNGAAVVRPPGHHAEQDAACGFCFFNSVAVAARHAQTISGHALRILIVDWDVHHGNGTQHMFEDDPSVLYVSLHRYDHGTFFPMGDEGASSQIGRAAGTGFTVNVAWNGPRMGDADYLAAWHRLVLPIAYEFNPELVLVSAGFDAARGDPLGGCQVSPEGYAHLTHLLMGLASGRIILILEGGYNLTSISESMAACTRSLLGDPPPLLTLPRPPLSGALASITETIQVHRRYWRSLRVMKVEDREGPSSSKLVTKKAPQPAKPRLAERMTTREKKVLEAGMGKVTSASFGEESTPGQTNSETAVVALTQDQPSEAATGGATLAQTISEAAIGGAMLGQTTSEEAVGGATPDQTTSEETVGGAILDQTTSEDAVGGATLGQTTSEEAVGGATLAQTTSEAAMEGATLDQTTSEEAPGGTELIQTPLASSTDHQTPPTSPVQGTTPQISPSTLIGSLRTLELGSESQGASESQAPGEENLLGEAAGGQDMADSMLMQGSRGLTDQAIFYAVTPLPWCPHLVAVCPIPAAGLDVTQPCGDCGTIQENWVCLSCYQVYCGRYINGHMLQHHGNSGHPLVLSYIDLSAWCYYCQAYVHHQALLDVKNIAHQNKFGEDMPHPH

HDAC10 = biological target: T2, HDAC10 (Homo sapiens, UniProt Q969S8); test: In vitro HDAC inhibition assay, HDAC10; assay type: biochemical; details: NI = No inhibition at a concentration of 50 pM (footnote b); read-out: HDAC isoform IC50, HDAC10
T2 sequence (Q969S8 1-669): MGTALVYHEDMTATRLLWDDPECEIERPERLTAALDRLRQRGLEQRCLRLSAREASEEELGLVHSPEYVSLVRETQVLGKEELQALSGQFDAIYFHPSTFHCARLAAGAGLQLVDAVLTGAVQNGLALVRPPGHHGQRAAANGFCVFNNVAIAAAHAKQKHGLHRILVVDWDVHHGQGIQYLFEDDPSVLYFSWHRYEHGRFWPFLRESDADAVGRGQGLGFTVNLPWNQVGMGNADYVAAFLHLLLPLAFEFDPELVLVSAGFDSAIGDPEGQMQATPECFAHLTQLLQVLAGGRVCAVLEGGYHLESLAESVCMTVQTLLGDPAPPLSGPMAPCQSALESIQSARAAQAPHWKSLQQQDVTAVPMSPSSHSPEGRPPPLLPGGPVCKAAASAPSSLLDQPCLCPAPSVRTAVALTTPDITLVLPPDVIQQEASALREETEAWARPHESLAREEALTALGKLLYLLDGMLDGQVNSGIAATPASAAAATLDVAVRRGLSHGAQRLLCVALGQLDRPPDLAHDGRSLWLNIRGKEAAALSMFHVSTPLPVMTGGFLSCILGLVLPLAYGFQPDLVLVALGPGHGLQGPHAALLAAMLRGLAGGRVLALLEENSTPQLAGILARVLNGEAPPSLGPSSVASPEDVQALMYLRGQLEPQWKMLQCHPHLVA

BxPC-3 = test: In vitro growth inhibition of pancreatic cancer cell lines (Table 3), BxPC-3; assay type: cell-based; details: Homo sapiens, 72 hours post-treatment, cell viability
Method: (§1) In Vitro growth inhibition of pancreatic cancer cell lines. Four of the present HDACIs were analyzed in the [3-(4,5-dimethylthiazol-2-yl)]-2,5-diphenyltetrazolium bromide (MTT) assay in four pancreatic cancer cell lines (Table 3).

Panc 04.03 = test: In vitro growth inhibition of pancreatic cancer cell lines (Table 3), Panc 04.03; assay type: cell-based; details: Homo sapiens, 72 hours post-treatment, cell viability
Method: as §1

Mia PaCa-2 = test: In vitro growth inhibition of pancreatic cancer cell lines (Table 3), Mia PaCa-2; assay type: cell-based; details: Homo sapiens, 72 hours post-treatment, cell viability
Method: as §1

PANC1 = test: In vitro growth inhibition of pancreatic cancer cell lines (Table 3), PANC1; assay type: cell-based; details: Homo sapiens, PANC-1; 72 hours post-treatment, cell viability
Method: as §1

BxPC3 = test: In vitro growth inhibition (GI), MTS cell proliferation assay (Table 5), BxPC3; assay type: cell-based; details: Homo sapiens, BXPC-3, 72 hours post-treatment
L3.6pl = test: In vitro growth inhibition (GI), MTS cell proliferation assay (Table 5), L3.6pl; assay type: cell-based; details: Homo sapiens, 72 hours post-treatment
[1] = test system: L3.6pl pancreatic cancer cells; test: Apoptosis by Hoechst staining and PARP cleavage; assay type: cell-based; details: 10 μM, 24 hours after the initiation of treatment
Method: FIG. 3 contains photographs and Western immunoblots showing that HDAC inhibitors of present invention induce apoptosis on L3.6p1 pancreatic cancer cells. L3.6p1 pancreatic cancer cells were treated with 10 μM of compound 1, 2 or 4 for 24 hrs as indicated. Cells were collected and processed to Hoechst staining (upper panel) and cell lysates were prepared for Western immunoblotting (lower panel). 50 μg of proteins were separated by SDS-PAGE, transferred to PVDF membrane, and immunoblotted as indicated.

Human HDAC1 = Human HDAC1 (Homo sapiens, UniProt Q13547); test: In vitro HDAC inhibition assay, HDAC1; details: read-out: HDAC isoform IC50, HDAC1; NI = No inhibition at a concentration of 50 pM (footnote b)
Chain of Human HDAC1 (Q13547 whole entry, canonical isoform): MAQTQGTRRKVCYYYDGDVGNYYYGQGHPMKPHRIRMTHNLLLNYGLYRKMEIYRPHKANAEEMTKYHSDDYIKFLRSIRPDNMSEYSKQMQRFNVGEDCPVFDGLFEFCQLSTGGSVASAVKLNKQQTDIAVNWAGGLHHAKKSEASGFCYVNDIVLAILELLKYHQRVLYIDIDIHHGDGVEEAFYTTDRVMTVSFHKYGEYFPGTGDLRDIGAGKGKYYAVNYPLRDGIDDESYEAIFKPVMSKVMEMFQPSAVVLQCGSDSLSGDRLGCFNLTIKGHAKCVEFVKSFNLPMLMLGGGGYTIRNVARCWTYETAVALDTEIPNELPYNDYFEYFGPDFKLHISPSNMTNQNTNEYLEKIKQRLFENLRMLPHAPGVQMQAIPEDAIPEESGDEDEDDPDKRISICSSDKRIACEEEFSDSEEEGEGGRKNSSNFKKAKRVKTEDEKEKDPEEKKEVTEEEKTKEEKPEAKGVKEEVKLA

PANC1 cells [2] = test: Scratch-wound cell migration assay; assay type: cell-based; parameters: key to Inhibition of cell migration, 24 h / Inhibition of cell migration, 48 h: Level of inhibition (high to low): +++, ++ or +; Level of inhibition (high to low): +++, ++ or +; Level of inhibition (high to low): +++, ++ or +; no inhibition: −; details: for Inhibition of cell migration, 24 h: PANC1, 24 h post wounding; for Inhibition of cell migration, 48 h: PANC1, 48 h post wounding
Method: FIG. 2 contains photographs of PANC1 cells treated with present compounds 9 and 6 taken 24 and 48 hours (post wounding) after a scratch was made through a confluent layer of cells; and
PANC1 Cell migration and effect on T and NK Cells. The effect of HDAC6 inhibition on cell migration and cellular cytotoxicity was evaluated. […] Thus, these HDAC6-selective inhibitors could function well to block metastasis. However, in contrast to the effect observed on cell migration, none of the compounds tested affected CD8+ T cell or natural killer (NK) cell-mediated cytotoxicity, despite the ability of the compounds to substantially increase the levels of acetyl-tubulin in these cell lines.

acetylated alpha-tubulin = test: Accumulation of acetylated alpha-tubulin in pancreatic cancer cells; assay type: cell-based; details: FIG. 1A
Description: Cell cycle and inhibition of alpha-tubulin deacetylation.

PANC1 cells [3] = test: Cell cycle analysis; assay type: cell-based; details: FIG. 1B, accumulation in the G2/M phase
Description: This finding is consistent with cell cycle data, which indicate that treatment of pancreatic cancer cells with a present HDACIs results in an accumulation of cells in the G2/M phase of the cell cycle.

Chain of HDAC2 (Q92769 whole entry, canonical isoform): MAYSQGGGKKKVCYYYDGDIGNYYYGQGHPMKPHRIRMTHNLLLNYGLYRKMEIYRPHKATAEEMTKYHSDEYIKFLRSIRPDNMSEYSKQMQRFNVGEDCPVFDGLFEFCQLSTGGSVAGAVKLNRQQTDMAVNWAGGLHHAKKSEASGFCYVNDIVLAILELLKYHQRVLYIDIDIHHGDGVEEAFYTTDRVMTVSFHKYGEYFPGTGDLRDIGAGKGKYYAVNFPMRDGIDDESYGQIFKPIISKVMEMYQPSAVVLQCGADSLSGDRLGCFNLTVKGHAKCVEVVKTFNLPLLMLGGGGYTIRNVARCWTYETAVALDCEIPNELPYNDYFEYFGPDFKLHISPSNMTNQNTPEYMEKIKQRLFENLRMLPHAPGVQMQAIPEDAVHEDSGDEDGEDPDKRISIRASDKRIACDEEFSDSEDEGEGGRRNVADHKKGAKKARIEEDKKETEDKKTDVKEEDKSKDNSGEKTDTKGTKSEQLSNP

IC50 (HDAC2) [nM]	IC50 (HDAC3/NcoR2 complex) [nM]	IC50 (Human HDAC6) [nM]	IC50 (HDAC10) [nM]	IC50 (BxPC-3) [nM]	IC50 (Panc 04.03) [nM]	IC50 (Mia PaCa-2) [nM]	IC50 (PANC1) [nM]	GI50 (BxPC3) [nM]	IC50 (Human HDAC1) [nM]	SMILES	GI50 (L3.6pl) [nM]	Induction of apoptosis (Hoechst staining and PARP cleavage) [1]	Inhibition of cell migration, 24 h (PANC1 cells [2])	Inhibition of cell migration, 48 h (PANC1 cells [2])	Accumulation of acetylated alpha-tubulin (acetylated alpha-tubulin)	Cell cycle arrest (PANC1 cells [3])
834	354	48.9	323	15200	13500	1900	11000	1700	200	CCOC(=O)Nc1ccc(-c2csc(NC(=O)CCCc3cc(C(=O)NO)no3)n2)cc1 [Compound 4, (4-{2-[4-(3-Hydroxycarbamoyl-isoxazol-5-yl)-butyrylamino]-thiazol-4-yl}-phenyl)-carbamic acid ethyl ester]	1700	effectively induced apoptosis				
1370	479	0.6	22200					2400	495	O=C(NO)c1ccc(CNC(=O)c2cc(Cn3c4ccccc4c4ccccc43)on2)cc1 [Compound 18, 5-Carbazol-9-ylmethyl-isoxazole-3-carboxylic acid 4-hydroxycarbamoyl-benzylamide]	1300		+	−	accumulation of acetylated alpha-tubulin	cell cycle arrest
1900	135	0.33	3160					8100	436	CC(C)(C)OC(=O)Nc1ccc(-c2cc(C(=O)NCc3ccc(C(=O)NO)cc3)no2)cc1 [Compound 15, {4-[3-(4-Hydroxycarbamoyl-benzylcarbamoyl)-isoxazol-5-yl]-phenyl}-carbamic acid tert-butyl ester]	2000				accumulation of acetylated alpha-tubulin	cell cycle arrest
1380	789	0.64	2730					7800	444	CC(C)(C)OC(=O)Nc1cccc(-c2cc(C(=O)NCc3ccc(C(=O)NO)cc3)no2)c1 [Compound 14, {3-[3-(4-Hydroxycarbamoyl-benzylcarbamoyl)-isoxazol-5-yl]-phenyl}-carbamic acid tert-butyl ester]	> 50000		−	−	accumulation of acetylated alpha-tubulin	cell cycle arrest
1140	320	31	407	1000				1500	307	O=C(CCc1cc(C(=O)NO)no1)Nc1nc(-c2ccccc2)cs1 [Compound 1, 5-[2-(4-Phenyl-thiazol-2-ylcarbamoyl)-ethyl]-isoxazole-3-carboxylic acid hydroxyl amide]	1300	effectively induced apoptosis				
1220	934	81.8	854	20800	48400	1300	2500	2300	351	O=C(CCCc1cc(C(=O)NO)no1)Nc1nc(-c2ccccc2)cs1 [Compound 2, 5-[3-(4-Phenyl-thiazol-2-ylcarbamoyl)-propyl]-isoxazole-3-carboxylic acid hydroxyamide]	700	effectively induced apoptosis				
